Values quoted from earlier work as cited in patent US20240325349A1, “LIQUID PHARMACEUTICAL FORMULATIONS OF TOPIRAMATE” (TaP Pharmaceuticals AG, priority 2023, published 2024).
Where two headings read alike, the source gives them in different places.

Compound: CC1(C)O[C@@H]2[C@@H](CO[C@@]3(COS(N)(=O)=O)OC(C)(C)O[C@@H]23)O1 [Topiramate, 2,3:4,5-Di-O-isopropylidene-β-D-fructopyranose sulfamate]
- Topiramate Solubility (in Aconon C-30 (oil)): 50.7 ± 3.5 mg/mL
- Topiramate Solubility (in Capmul MCM C-8 (oil)): 62.5 ± 3.9 mg/mL
- Topiramate Solubility (in Capmul MCM EP (oil)): 61.4 ± 3.8 mg/mL
- Topiramate Solubility (in Captex 355 (oil)): 14.5 ± 0.8 mg/mL
- Topiramate Solubility (in Carbitol (cosurfactant)): 355.6 ± 29.2 mg/mL
- Topiramate Solubility (in Cremophor EL (surfactant)): 78 ± 2.1 mg/mL
- Topiramate Solubility (in Cremophor RH-40 (surfactant)): 46 ± 2.7 mg/mL
- Topiramate Solubility (in Ethyl Oleate (oil)): 6.7 ± 0.3 mg/mL
- Topiramate Solubility (in IPM (oil)): 6.7 ± 0.4 mg/mL
- Topiramate Solubility (in Oleic Acid (oil)): 0.1 ± 0.1 mg/mL
- Topiramate Solubility (in PEG 200 (cosurfactant)): 169.6 ± 2.3 mg/mL
- Topiramate Solubility (in PEG 400 (cosurfactant)): 148.9 ± 3.5 mg/mL
- Topiramate Solubility (in Sesfol 218 (oil)): 53.6 ± 2.6 mg/mL
- Topiramate Solubility (in Tween 20 (surfactant)): 142.8 ± 6.4 mg/mL
- Topiramate Solubility (in Tween 80 (surfactant)): 84.2 ± 3^ mg/mL
